Biological target: T1, recombinant 15-PGDH (Homo sapiens, UniProt P15428)
T1 sequence (P15428 1-266): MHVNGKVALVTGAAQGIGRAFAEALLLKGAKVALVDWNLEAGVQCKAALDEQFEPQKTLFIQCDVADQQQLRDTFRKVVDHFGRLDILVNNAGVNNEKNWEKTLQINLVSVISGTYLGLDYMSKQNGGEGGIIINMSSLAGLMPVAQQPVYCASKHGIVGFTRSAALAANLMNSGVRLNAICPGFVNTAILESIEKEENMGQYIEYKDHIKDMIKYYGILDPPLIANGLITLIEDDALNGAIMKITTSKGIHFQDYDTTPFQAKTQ
Type: biochemical
Conditions: recombinant human 15-PGDH, in vitro; read-out: PDGH Assay-IC50
Text: The Recombinant 15-PGDH is human unless otherwise specified.

| SMILES | IC50 |
| --- | --- |
| COC(=O)Nc1ccc(-c2cc(-c3cccnc3)c3c(N)c([S+]([O-])C4CCC4)sc3n2)cn1 (centres unmarked) [Example 100] | < 2.5 nM |
| Nc1c([S@@+]([O-])C2CCC2)sc2nc(-c3cnc(NCCO)nc3)cc(-c3cccnc3)c12 [Example 104] | ≥ 10 nM |
| COCCC[S+]([O-])c1sc2nc(-c3ccc(NC(=O)OC)nc3)cc(-c3cccnc3)c2c1N (centres unmarked) [Example 105] | 2.5 to 10 nM |
| CS(=O)(=O)Nc1ncc(-c2cc(-c3ccccn3)c3c(N)c([S+]([O-])C4CCC4)sc3n2)cn1 (centres unmarked) [Example 108] | < 2.5 nM |
| COCC[S+]([O-])c1sc2nc(-c3cnc(N)nc3)cc(C3CC3)c2c1N (centres unmarked) [Example 110] | < 2.5 nM |
| COCCC[S@@+]([O-])c1sc2nc(-c3cncnc3)cc(-c3ncccn3)c2c1N [Example 111] | < 2.5 nM |
| COCCC[S@+]([O-])c1sc2nc(-c3cncnc3)cc(-c3ncccn3)c2c1N [Example 112] | ≥ 10 nM |
| COC(=O)Nc1ncc(-c2cc(-c3ccccn3)c3c(N)c([S+]([O-])C4CCC4)sc3n2)cn1 (centres unmarked) [Example 113] | 2.5 to 10 nM |
| Nc1c([S+]([O-])C2CCC2)sc2nc(-c3cncnc3)cc(-c3ccc(C4COC4)cc3)c12 (centres unmarked) [Example 114] | < 2.5 nM |
| COCCC[S+]([O-])c1sc2nc(-c3cnc4c(cnn4C)c3)cc(-c3ccccc3)c2c1N (centres unmarked) [Example 116] | 2.5 to 10 nM |
| COC(=O)Nc1ncc(-c2cc(-c3cccnc3)c3c(N)c([S+]([O-])C4CCC4)sc3n2)cn1 (centres unmarked) [Example 117] | 2.5 to 10 nM |
| Nc1c([S+]([O-])C2CCC2)sc2nc(-c3cnc(NCCO)nc3)cc(-c3ccc(F)cn3)c12 (centres unmarked) [Example 118] | 2.5 to 10 nM |
| COCCC[S+]([O-])c1sc2nc(-c3cncnc3)cc(-c3ccnc(C)c3)c2c1N (centres unmarked) [Example 119] | < 2.5 nM |
| COCC[S+]([O-])c1sc2nc(-c3cnc4nn(C)cc4c3)cc(-c3ccccc3)c2c1N (centres unmarked) [Example 124] | < 2.5 nM |
| COCCC[S+]([O-])c1sc2nc(-c3cnc(NCCO)nc3)cc(-c3ccccc3)c2c1N (centres unmarked) [Example 125] | < 2.5 nM |
| COCC[S+]([O-])c1sc2nc(-c3cnc(NCCO)nc3)cc(-c3ccccc3)c2c1N (centres unmarked) [Example 126] | < 2.5 nM |
| Nc1c([S+]([O-])C2CCC2)sc2nc(-c3cncnc3)cc(-c3ccc(C4COC4)cn3)c12 (centres unmarked) [Example 128] | < 2.5 nM |
| Nc1c([S+]([O-])C2CCC2)sc2nc(-c3cnc(C(=O)NCCO)nc3)cc(-c3ccccc3)c12 (centres unmarked) [Example 129] | < 2.5 nM |
| COCCC[S+]([O-])c1sc2nc(-c3cncnc3)cc(C(F)(F)F)c2c1N (centres unmarked) [Example 131] | < 2.5 nM |
| COCC[S+]([O-])c1sc2nc(-c3cnc(N)nc3)cc(C(F)(F)F)c2c1N (centres unmarked) [Example 132] | < 2.5 nM |

| SMILES | IC50 |
| --- | --- |
| COCCC[S+]([O-])c1sc2nc(-c3cnc(N)nc3)cc(C(F)(F)F)c2c1N (centres unmarked) [Example 133] | < 2.5 nM |
| COCCC[S+]([O-])c1sc2nc(-c3ccc(N)nc3)cc(C(F)(F)F)c2c1N (centres unmarked) [Example 134] | 2.5 to 10 nM |
| COCC[S+]([O-])c1sc2nc(-c3ccc(N)nc3)cc(C(F)(F)F)c2c1N (centres unmarked) [Example 135] | 2.5 to 10 nM |
| Nc1c([S+]([O-])C2CCC2)sc2nc(-c3cnc(NCCO)nc3)cc(C(F)(F)F)c12 (centres unmarked) [Example 138] | 2.5 to 10 nM |
| Nc1c([S+]([O-])C2CCC2)sc2nc(-c3cnc(NCCOCCO)nc3)cc(-c3ccccc3)c12 (centres unmarked) [Example 141] | < 2.5 nM |
| Nc1c([S+]([O-])C2CCC2)sc2nc(-c3cnc(NCCN4CCS(=O)(=O)CC4)nc3)cc(-c3ccccc3)c12 (centres unmarked) [Example 142] | < 2.5 nM |
| Nc1ncc(-c2cc(-c3ccc(C4COC4)cc3)c3c(N)c([S+]([O-])C4CCC4)sc3n2)cn1 (centres unmarked) [Example 143] | < 2.5 nM |
| Nc1c([S+]([O-])C2CCC2)sc2nc(-c3cnc(NCCO)nc3)cc(C3CC3)c12 (centres unmarked) [Example 145] | < 2.5 nM |
| COCCC[S@@+]([O-])c1sc2nc(-c3cnc(N)nc3)cc(C3CC3)c2c1N [Example 146] | < 2.5 nM |
| COCC[S@@+]([O-])c1sc2nc(-c3cncnc3)cc(C3CC3)c2c1N [Example 148] | < 2.5 nM |
| COCC[S@+]([O-])c1sc2nc(-c3cncnc3)cc(C3CC3)c2c1N [Example 149] | ≥ 10 nM |
| COCC[S@@+]([O-])c1sc2nc(-c3cnc(N)nc3)cc(C3CC3)c2c1N [Example 150] | < 2.5 nM |
| Nc1c([S+]([O-])C2CCC2)sc2nc(-c3cnc(NCCO)nc3)cc(-c3ccccc3F)c12 (centres unmarked) [Example 152] | < 2.5 nM |
| Cc1cc(-c2cc(-c3cncnc3)nc3sc([S+]([O-])C4CCC4)c(N)c23)ccn1 (centres unmarked) [Example 154] | < 2.5 nM |
| Nc1c([S+]([O-])C2CCC2)sc2nc(-c3cnc(NCCO)nc3)cc(-c3ccc(F)cc3)c12 (centres unmarked) [Example 158] | 2.5 to 10 nM |
| CNC(=O)c1ncc(-c2cc(-c3ccccc3)c3c(N)c([S+]([O-])CCCOC)sc3n2)cn1 (centres unmarked) [Example 165] | 2.5 to 10 nM |
| COCC[S+]([O-])c1sc2nc(-c3ccc(=O)[nH]c3)cc(-c3ccccc3)c2c1N (centres unmarked) [Example 167] | < 2.5 nM |
| Cn1cc(-c2cc(-c3cnc(N)nc3)nc3sc([S+]([O-])C4CCC4)c(N)c23)cn1 (centres unmarked) [Example 169] | < 2.5 nM |
| COCCC[S+]([O-])c1sc2nc(-c3cnc4c(cnn4C)c3)cc(C3CC3)c2c1N (centres unmarked) [Example 172] | 2.5 to 10 nM |

Second part, the compound after the results:

| IC50 | SMILES |
| --- | --- |
| < 2.5 nM | Nc1c([S+]([O-])C2CCC2)sc2nc(-c3cncnc3)cc(-c3ncccn3)c12 (centres unmarked) [Example 98] |
| < 2.5 nM | Cc1ncc(-c2cc(-c3ccccc3)c3c(N)c([S+]([O-])C4CCC4)sc3n2)cn1 (centres unmarked) [Example 99] |
| < 2.5 nM | COCCC[S@@+]([O-])c1sc2nc(-c3cnc4c(cnn4C)c3)cc(-c3cccnc3)c2c1N [Example 101] |
| ≥ 10 nM | COCCC[S@+]([O-])c1sc2nc(-c3cnc4c(cnn4C)c3)cc(-c3cccnc3)c2c1N [Example 102] |
| < 2.5 nM | COCCC[S+]([O-])c1sc2nc(-c3cncnc3)cc(C3CC3)c2c1N (centres unmarked) [Example 106] |
| < 2.5 nM | COCCC[S+]([O-])c1sc2nc(-c3cnc(N)nc3)cc(C3CC3)c2c1N (centres unmarked) [Example 107] |
| < 2.5 nM | COCC[S+]([O-])c1sc2nc(-c3cncnc3)cc(C3CC3)c2c1N (centres unmarked) [Example 109] |
| < 2.5 nM | Nc1c([S+]([O-])C2CCC2)sc2nc(-c3cnc(NCCO)nc3)cc(-c3cncc(F)c3)c12 (centres unmarked) [Example 115] |
| < 2.5 nM | COCC[S+]([O-])c1sc2nc(-c3cnc4c(cnn4C)c3)cc(-c3ccccc3)c2c1N (centres unmarked) [Example 120] |
| < 2.5 nM | Nc1c([S+]([O-])C2CCC2)sc2nc(-c3cncnc3)cc(-c3ncccc3F)c12 (centres unmarked) [Example 121] |
| < 2.5 nM | Nc1c([S+]([O-])C2CCC2)sc2nc(-c3cnc(NCCO)nc3)cc(-c3ncccc3F)c12 (centres unmarked) [Example 122] |
| < 2.5 nM | COCCC[S+]([O-])c1sc2nc(-c3cnc4nn(C)cc4c3)cc(-c3ccccc3)c2c1N (centres unmarked) [Example 123] |
| < 2.5 nM | COCC[S+]([O-])c1sc2nc(-c3cncnc3)cc(-c3ccnc(C)c3)c2c1N (centres unmarked) [Example 127] |
| < 2.5 nM | COCC[S+]([O-])c1sc2nc(-c3cncnc3)cc(C(F)(F)F)c2c1N (centres unmarked) [Example 130] |
| 2.5 to 10 nM | COCCC[S+]([O-])c1sc2nc(-c3cnc(C)nc3)cc(C(F)(F)F)c2c1N (centres unmarked) [Example 136] |
| < 2.5 nM | COCC[S+]([O-])c1sc2nc(-c3cnc(C)nc3)cc(C(F)(F)F)c2c1N (centres unmarked) [Example 137] |
| 2.5 to 10 nM | COCCC[S+]([O-])c1sc2nc(-c3cnc(NCCO)nc3)cc(C(F)(F)F)c2c1N (centres unmarked) [Example 139] |
| 2.5 to 10 nM | COCC[S+]([O-])c1sc2nc(-c3cnc(NCCO)nc3)cc(C(F)(F)F)c2c1N (centres unmarked) [Example 140] |

| IC50 | SMILES |
| --- | --- |
| < 2.5 nM | CN(CCO)c1ncc(-c2cc(-c3ccccc3)c3c(N)c([S+]([O-])C4CCC4)sc3n2)cn1 (centres unmarked) [Example 144] |
| < 2.5 nM | Nc1c([S+]([O-])C2CCC2)sc2nc(-c3cncnc3)cc(-c3ccc(C4COC4)nc3)c12 (centres unmarked) [Example 147] |
| ≥ 10 nM | COCC[S@+]([O-])c1sc2nc(-c3cnc(N)nc3)cc(C3CC3)c2c1N [Example 151] |
| < 2.5 nM | COCCC[S@@+]([O-])c1sc2nc(-c3cncnc3)cc(C3CC3)c2c1N [Example 153] |
| < 2.5 nM | Nc1c([S+]([O-])C2CCC2)sc2nc(-c3cnc(NCC(=O)O)nc3)cc(-c3ccccc3)c12 (centres unmarked) [Example 155] |
| < 2.5 nM | NCCOCCNc1ncc(-c2cc(-c3ccccc3)c3c(N)c([S+]([O-])C4CCC4)sc3n2)cn1 (centres unmarked) [Example 156] |
| < 2.5 nM | Nc1c([S+]([O-])C2CCC2)sc2nc(-c3cnc(NCCO)nc3)cc(-c3cccc(F)c3)c12 (centres unmarked) [Example 157] |
| < 2.5 nM | Nc1c([S+]([O-])C2CCC2)sc2nc(-c3cnc(NCCO)nc3)cc(-c3ccc(Cl)cc3)c12 (centres unmarked) [Example 159] |
| 2.5 to 10 nM | Nc1c([S+]([O-])C2CCC2)sc2nc(-c3cnc(NCCO)nc3)cc(-c3ccc(C(F)(F)F)cc3)c12 (centres unmarked) [Example 160] |
| < 2.5 nM | COCCC[S+]([O-])c1sc2nc(-c3ccc(=O)n(C)c3)cc(-c3ccccc3)c2c1N (centres unmarked) [Example 161] |
| < 2.5 nM | COCCC[S+]([O-])c1sc2nc(-c3cncnc3)cc(C)c2c1N (centres unmarked) [Example 163] |
| < 2.5 nM | Cc1cc(-c2cncnc2)nc2sc([S+]([O-])C3CCC3)c(N)c12 (centres unmarked) [Example 164] |
| 2.5 to 10 nM | COCCC[S+]([O-])c1sc2nc(-c3cnc(O)nc3)cc(-c3ccccc3)c2c1N (centres unmarked) [Example 166] |
| 2.5 to 10 nM | Nc1c([S+]([O-])C2CCC2)sc2nc(-c3cnc(NCCO)nc3)cc(-c3cccc(C(F)(F)F)c3)c12 (centres unmarked) [Example 168] |
| < 2.5 nM | COCCC[S@@+]([O-])c1sc2nc(-c3cncnc3)cc(-c3ccnc(C)c3)c2c1N [Example 170] |
| < 2.5 nM | COCC[S+]([O-])c1sc2nc(-c3cncnc3)cc(C)c2c1N (centres unmarked) [Example 173] |
| 2.5 to 10 nM | Nc1c([S+]([O-])C2CCC2)sc2nc(-c3ccc(=O)[nH]c3)cc(-c3ccc(C4COC4)cc3)c12 (centres unmarked) [Example 174] |
